The text below walks through data of the Kinase Knowledgebase extract (Sharma et al. 2016).

For this test, the target named is ROCK2 (human) (UniProt O75116). In words: Inhibition of ROCK2 Kinase Activity.
Chain of ROCK2 (human) (O75116 whole entry, looked up): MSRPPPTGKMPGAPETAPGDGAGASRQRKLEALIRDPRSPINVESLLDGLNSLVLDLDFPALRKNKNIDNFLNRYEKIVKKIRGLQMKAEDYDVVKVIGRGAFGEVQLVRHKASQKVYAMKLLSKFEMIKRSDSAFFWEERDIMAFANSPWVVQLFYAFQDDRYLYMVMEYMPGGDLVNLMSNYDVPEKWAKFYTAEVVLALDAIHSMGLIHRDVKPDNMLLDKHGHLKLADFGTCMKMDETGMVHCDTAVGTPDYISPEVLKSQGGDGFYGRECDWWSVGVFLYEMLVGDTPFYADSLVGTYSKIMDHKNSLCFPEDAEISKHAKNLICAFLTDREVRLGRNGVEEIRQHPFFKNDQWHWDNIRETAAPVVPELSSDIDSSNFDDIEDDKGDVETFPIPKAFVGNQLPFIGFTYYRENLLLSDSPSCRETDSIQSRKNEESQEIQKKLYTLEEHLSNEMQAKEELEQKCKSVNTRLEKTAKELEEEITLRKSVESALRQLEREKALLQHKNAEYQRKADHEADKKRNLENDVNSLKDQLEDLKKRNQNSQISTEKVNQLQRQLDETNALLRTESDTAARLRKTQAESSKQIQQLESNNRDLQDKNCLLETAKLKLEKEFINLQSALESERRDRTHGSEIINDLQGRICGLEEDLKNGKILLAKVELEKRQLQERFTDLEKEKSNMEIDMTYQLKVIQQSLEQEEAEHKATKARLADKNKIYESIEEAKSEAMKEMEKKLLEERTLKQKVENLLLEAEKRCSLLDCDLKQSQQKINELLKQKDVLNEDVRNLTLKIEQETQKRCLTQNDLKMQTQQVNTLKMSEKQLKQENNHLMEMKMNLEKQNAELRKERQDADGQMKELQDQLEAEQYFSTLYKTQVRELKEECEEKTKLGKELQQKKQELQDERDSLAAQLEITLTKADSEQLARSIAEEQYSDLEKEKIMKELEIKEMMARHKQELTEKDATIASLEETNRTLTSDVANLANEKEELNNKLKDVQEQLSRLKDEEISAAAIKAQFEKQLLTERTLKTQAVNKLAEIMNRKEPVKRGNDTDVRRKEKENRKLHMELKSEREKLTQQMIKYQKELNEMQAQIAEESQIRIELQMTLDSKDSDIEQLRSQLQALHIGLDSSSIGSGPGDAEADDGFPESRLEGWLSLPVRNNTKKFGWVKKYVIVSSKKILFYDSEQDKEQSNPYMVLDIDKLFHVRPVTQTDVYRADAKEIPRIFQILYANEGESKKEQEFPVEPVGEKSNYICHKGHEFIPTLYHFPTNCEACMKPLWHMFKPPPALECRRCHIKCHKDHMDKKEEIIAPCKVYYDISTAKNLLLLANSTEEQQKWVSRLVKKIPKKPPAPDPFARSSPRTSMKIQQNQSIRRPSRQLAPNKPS
The IC50 is the point on the concentration scale where inhibition reaches its midpoint. For the compound `COc1ccc(OC)c(CNC(=O)CC(N)c2ccc(C(=O)Nc3ccncc3)cc2)c1` (stereo unspecified), the IC50 lay in the range of 50 to 500 nM. The value for `NC(CNC(=O)NCc1ccccc1)c1ccc(C(=O)Nc2ccncc2)cc1` (stereo unspecified) was 50 to 500 nM. `NC(CNC(=O)c1cccc(Cl)c1)c1ccc(C(=O)Nc2ccncc2)cc1` (stereo unspecified): the IC50 lay within 500 to 5000 nM. Regarding `NC(CC(=O)NCCc1c(Cl)cccc1Cl)c1ccc(C(=O)Nc2ccncc2)cc1` (stereo unspecified), the IC50 lay within 50 to 500 nM.

The compound `NC(c1ccc(C(=O)Nc2ccncc2)cc1)C1CCCN1C(=O)Cc1ccc(Cl)cc1` (stereo unspecified) yielded a 50% inhibitory concentration (IC50) of 500 to 5000 nM. `NC(c1ccc(C(=O)Nc2ccncc2)cc1)C1CCCN1C(=O)C1CCOc2ccc(Cl)cc21` (stereo unspecified) registered a 50% inhibitory concentration (IC50) of 500 to 5000 nM. On to `NC(c1ccc(C(=O)Nc2ccncc2)cc1)C1CCCN1C(=O)Cc1ccc(C(F)(F)F)cc1` (stereo unspecified), for which the IC50 lay in the range of 500 to 5000 nM. `CN(CC(N)c1ccc(C(=O)Nc2ccncc2)cc1)C(=O)C1(c2ccc(F)cc2F)CC1` (stereo unspecified) came in with a concentration for half-maximal inhibition (IC50) of 500 to 5000 nM. The compound `CN(CC(N)c1ccc(C(=O)Nc2ccncc2)cc1)C(=O)Cc1cccc(Cl)c1` (stereo unspecified) registered an IC50 of 500 to 5000 nM. Regarding `NC(c1ccc(C(=O)Nc2ccncc2)cc1)C1CCCN1C(=O)C1(c2cccc(F)c2)CCCC1` (stereo unspecified), the half-inhibitory concentration (IC50) was 500 to 5000 nM. On to `COC1CCC(C(=O)NCC(N)c2ccc(C(=O)Nc3ccncc3)cc2)CC1` (stereo unspecified), for which the IC50 lay within 500 to 5000 nM. Then `NC(CC(=O)NCc1ccc(C(F)(F)F)c(F)c1)c1ccc(C(=O)Nc2ccncc2)cc1` (stereo unspecified), with 50 to 500 nM.

The compound `COc1cc(CC(=O)N2CCCC2C(N)c2ccc(C(=O)Nc3ccncc3)cc2)cc(OC)c1OC` (stereo unspecified) gave an IC50 of 500 to 5000 nM.

In turn, `NC(CNC(=O)C1CCc2ccccc2C1)c1ccc(C(=O)Nc2ccncc2)cc1` (stereo unspecified) came in with an IC50 of 500 to 5000 nM. In turn, `CN(CC(N)c1ccc(C(=O)Nc2ccncc2)cc1)C(=O)Cc1ccc(F)cc1Cl` (stereo unspecified) yielded an IC50 of 500 to 5000 nM. The compound `NC(CC(=O)Nc1ccc(CO)cc1)c1ccc(C(=O)Nc2ccncc2)cc1` (stereo unspecified) returned an IC50 of 50 to 500 nM.

Regarding `NC(c1ccc(C(=O)Nc2ccncc2)cc1)C1CCCN1C(=O)C1(c2cccs2)CC1` (stereo unspecified), the IC50 fell in the range of 500 to 5000 nM. Then `NC(CNC(=O)Cc1csc(Nc2ccccc2)n1)c1ccc(C(=O)Nc2ccncc2)cc1` (stereo unspecified), with 500 to 5000 nM. Then `NC(c1ccc(C(=O)Nc2ccncc2)cc1)C1CCCN1C(=O)Cc1cccc(Br)c1` (stereo unspecified), with 50 to 500 nM; and `CCCOc1ccc(C(=O)NCC(N)c2ccc(C(=O)Nc3ccncc3)cc2)cc1` (stereo unspecified), with 500 to 5000 nM. Then `CN(CC(N)c1ccc(C(=O)Nc2ccncc2)cc1)C(=O)Cc1ccccc1` (stereo unspecified), with 500 to 5000 nM; and `N[C@@H](CC(=O)N[C@H]1CCCc2ccccc21)c1ccc(C(=O)Nc2ccncc2)cc1`, with 50 to 500 nM; and `N[C@@H](CC(=O)N[C@@H]1CCCc2ccccc21)c1ccc(C(=O)Nc2ccncc2)cc1`, with 50 to 500 nM.

Compound `CC1=C(C(=O)NCC(N)c2ccc(C(=O)Nc3ccncc3)cc2)Cc2ccccc21` (stereo unspecified) displayed a half-inhibitory concentration (IC50) of 500 to 5000 nM. Then `NC(CC(=O)NCC1CC1)c1ccc(C(=O)Nc2ccncc2)cc1` (stereo unspecified), with 50 to 500 nM; and `COc1cccc(CNC(=O)CC(N)c2ccc(C(=O)Nc3ccncc3)cc2)c1OC` (stereo unspecified), with 50 to 500 nM; and `CC(Cc1ccc(Cl)cc1)NC(=O)CC(N)c1ccc(C(=O)Nc2ccncc2)cc1` (stereo unspecified), with 50 to 500 nM. In the case of `NC(CNC(=O)C1(c2ccc(F)cc2F)CC1)c1ccc(C(=O)Nc2ccncc2)cc1` (stereo unspecified), the half-inhibitory concentration (IC50) lay within 50 to 500 nM. Then `CN(CC(N)c1ccc(C(=O)Nc2ccncc2)cc1)C(=O)C(C)(C)c1cccs1` (stereo unspecified), with 500 to 5000 nM; and `NC(CNC(=O)Cc1ccccn1)c1ccc(C(=O)Nc2ccncc2)cc1` (stereo unspecified), with 500 to 5000 nM. The compound `NC(CNC(=O)c1ccc2ncccc2c1)c1ccc(C(=O)Nc2ccncc2)cc1` (stereo unspecified) showed an IC50 of 500 to 5000 nM.

`NC(CNC(=O)[C@@H]1CCC(=O)N1)c1ccc(C(=O)Nc2ccncc2)cc1` (stereo partly specified): the concentration for half-maximal inhibition (IC50) was in the range of 500 to 5000 nM. As to `NC(CC(=O)NC(c1ccccc1)c1ccccc1)c1ccc(C(=O)Nc2ccncc2)cc1` (stereo unspecified), the IC50 was 50 to 500 nM. Then `CN(CC(N)c1ccc(C(=O)Nc2ccncc2)cc1)C(=O)C1CCCc2ccccc21` (stereo unspecified), with 500 to 5000 nM. In turn, `CC(C)(C(=O)N1CCCC1C(N)c1ccc(C(=O)Nc2ccncc2)cc1)c1cccs1` (stereo unspecified) displayed an IC50 of 500 to 5000 nM. Then `Cc1ccccc1CNC(=O)CC(N)c1ccc(C(=O)Nc2ccncc2)cc1` (stereo unspecified), with 50 to 500 nM; and `COc1ccccc1CC(=O)NCC(N)c1ccc(C(=O)Nc2ccncc2)cc1` (stereo unspecified), with 500 to 5000 nM; and `NC(CNC(=O)C1(c2ccccc2)CC1)c1ccc(C(=O)Nc2ccncc2)cc1` (stereo unspecified), with 500 to 5000 nM. Then `NC(CC(=O)NCCc1ccc(Cl)c(Cl)c1)c1ccc(C(=O)Nc2ccncc2)cc1` (stereo unspecified), with 50 to 500 nM; and `NC(c1ccc(C(=O)Nc2ccncc2)cc1)C1CCCN1C(=O)C1(c2ccc(Cl)c(Cl)c2)CCC1` (stereo unspecified), with 500 to 5000 nM; and `NC(CNC(=O)c1ccc2[nH]ccc2c1)c1ccc(C(=O)Nc2ccncc2)cc1` (stereo unspecified), with 50 to 500 nM.
